13 compounds from patent publication US20230150974A1 (Foghorn Therapeutics Inc., priority 2020, published 2023) can be followed below.

The target of one experiment is T1, HiBiT-BRM (Homo sapiens, UniProt P51531).
T1 construct: expressed in transfected cells
Description: HiBiT-BRM cell-based degradation assay (Nano-Glo HiBiT Lytic Detection). As to conditions: HeLa cells expressing HiBiT-BRM, 24 h; for DC50: read-out: BRM HiBit Degradation IC50. On the procedure: (§1) Procedure: A stable HeLa cell line expressing HiBiT-BRM was generated. On day 0, 5000 cells were seeded in 40 μL of media into each well of 384-well cell culture plates. […] Subsequently plates were incubated for 24 h in a standard tissue culture incubator and equilibrated at room temperature for 15 minutes. Nano-Glo HiBiT Lytic Detection System (Promega N3050) reagent was freshly prepared and 20 ul was added to each well. Upon addition of this LgBit-containing reagent, the HiBiT and LgBiT proteins associate to form the luminescent NanoBiT luciferase. The plates were shaken for 10 minutes at room temperature and the bioluminescence read using an EnVision plate reader (PerkinElmer).
(§2) The degradation % was calculated using the following formula: % degradation=100%−100%×(LumSample−LumLC)/(LumHC−LumLC). DMSO treated cells are employed as High Control (HC) and 2 μM of a known BRM/BRG1 degrader standard treated cells are employed as Low Control (LC).
A general note: The HiBiT peptide binds its large partner to form an active luciferase.

The next experiment deals with T2, HiBit-BRG1 (Homo sapiens, UniProt P51532).
T2 construct: expressed in transfected cells
T2 sequence (P51532 whole entry): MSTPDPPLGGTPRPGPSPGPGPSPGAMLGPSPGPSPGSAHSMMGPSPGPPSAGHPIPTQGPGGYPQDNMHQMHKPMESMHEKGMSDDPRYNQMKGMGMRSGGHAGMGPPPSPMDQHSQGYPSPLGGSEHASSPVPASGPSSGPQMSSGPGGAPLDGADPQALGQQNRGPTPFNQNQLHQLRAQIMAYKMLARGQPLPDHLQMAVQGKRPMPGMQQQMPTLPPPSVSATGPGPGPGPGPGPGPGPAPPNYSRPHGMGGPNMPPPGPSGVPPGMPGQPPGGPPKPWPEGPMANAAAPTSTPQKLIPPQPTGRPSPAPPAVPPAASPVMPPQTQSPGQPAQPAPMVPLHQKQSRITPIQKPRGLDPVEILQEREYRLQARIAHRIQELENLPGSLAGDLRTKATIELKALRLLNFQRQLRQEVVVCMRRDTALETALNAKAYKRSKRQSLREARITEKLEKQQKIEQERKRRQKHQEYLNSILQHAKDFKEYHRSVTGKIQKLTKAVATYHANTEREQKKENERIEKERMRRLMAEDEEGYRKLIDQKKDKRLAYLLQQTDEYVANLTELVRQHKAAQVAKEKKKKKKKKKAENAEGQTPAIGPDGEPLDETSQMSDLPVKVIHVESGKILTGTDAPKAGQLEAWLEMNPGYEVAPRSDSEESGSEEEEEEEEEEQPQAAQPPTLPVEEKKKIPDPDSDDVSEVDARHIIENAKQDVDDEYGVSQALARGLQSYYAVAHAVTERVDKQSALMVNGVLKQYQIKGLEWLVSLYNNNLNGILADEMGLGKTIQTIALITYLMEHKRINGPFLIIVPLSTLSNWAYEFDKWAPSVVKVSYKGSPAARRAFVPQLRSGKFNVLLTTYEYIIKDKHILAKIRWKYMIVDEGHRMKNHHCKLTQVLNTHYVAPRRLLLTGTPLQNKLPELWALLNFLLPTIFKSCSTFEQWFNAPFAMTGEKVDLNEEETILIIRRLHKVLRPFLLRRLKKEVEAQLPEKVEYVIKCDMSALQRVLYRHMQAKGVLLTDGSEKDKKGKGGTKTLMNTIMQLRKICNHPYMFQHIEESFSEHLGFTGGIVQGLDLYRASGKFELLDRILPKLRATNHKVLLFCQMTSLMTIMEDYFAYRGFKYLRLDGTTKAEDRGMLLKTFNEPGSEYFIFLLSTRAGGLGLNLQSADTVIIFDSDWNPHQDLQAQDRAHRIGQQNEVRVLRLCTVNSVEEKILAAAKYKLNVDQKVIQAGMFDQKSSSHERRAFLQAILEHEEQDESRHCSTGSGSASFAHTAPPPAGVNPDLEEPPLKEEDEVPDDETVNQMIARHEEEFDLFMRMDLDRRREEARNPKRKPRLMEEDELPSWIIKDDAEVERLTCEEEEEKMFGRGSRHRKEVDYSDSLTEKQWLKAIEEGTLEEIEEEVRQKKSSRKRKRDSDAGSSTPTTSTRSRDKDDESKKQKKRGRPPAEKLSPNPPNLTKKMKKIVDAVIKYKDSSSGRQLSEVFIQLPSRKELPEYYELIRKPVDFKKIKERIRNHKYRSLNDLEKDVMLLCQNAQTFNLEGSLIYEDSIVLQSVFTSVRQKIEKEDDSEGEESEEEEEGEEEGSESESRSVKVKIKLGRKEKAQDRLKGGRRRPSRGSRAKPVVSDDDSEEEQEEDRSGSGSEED
The experiment can be described thus: HiBit-BRG1 cell-based degradation assay (Nano-Glo HiBiT Lytic Detection). The note with it: HeLa cells expressing HiBit-BRG1 and LgBit, 24 h; for DC50: read-out: BRG1 HiBit Degradation IC50; for Dmax: read-out: BRG1 HiBit Degradation Maximum (%). As to the method: as §1
For measurement of BRG1 degradation, a stable HeLa cell line expressing HiBit-BRG1 and LgBit was generated. The same protocol as above was then followed.
as §2

T1 sequence (P51531 whole entry): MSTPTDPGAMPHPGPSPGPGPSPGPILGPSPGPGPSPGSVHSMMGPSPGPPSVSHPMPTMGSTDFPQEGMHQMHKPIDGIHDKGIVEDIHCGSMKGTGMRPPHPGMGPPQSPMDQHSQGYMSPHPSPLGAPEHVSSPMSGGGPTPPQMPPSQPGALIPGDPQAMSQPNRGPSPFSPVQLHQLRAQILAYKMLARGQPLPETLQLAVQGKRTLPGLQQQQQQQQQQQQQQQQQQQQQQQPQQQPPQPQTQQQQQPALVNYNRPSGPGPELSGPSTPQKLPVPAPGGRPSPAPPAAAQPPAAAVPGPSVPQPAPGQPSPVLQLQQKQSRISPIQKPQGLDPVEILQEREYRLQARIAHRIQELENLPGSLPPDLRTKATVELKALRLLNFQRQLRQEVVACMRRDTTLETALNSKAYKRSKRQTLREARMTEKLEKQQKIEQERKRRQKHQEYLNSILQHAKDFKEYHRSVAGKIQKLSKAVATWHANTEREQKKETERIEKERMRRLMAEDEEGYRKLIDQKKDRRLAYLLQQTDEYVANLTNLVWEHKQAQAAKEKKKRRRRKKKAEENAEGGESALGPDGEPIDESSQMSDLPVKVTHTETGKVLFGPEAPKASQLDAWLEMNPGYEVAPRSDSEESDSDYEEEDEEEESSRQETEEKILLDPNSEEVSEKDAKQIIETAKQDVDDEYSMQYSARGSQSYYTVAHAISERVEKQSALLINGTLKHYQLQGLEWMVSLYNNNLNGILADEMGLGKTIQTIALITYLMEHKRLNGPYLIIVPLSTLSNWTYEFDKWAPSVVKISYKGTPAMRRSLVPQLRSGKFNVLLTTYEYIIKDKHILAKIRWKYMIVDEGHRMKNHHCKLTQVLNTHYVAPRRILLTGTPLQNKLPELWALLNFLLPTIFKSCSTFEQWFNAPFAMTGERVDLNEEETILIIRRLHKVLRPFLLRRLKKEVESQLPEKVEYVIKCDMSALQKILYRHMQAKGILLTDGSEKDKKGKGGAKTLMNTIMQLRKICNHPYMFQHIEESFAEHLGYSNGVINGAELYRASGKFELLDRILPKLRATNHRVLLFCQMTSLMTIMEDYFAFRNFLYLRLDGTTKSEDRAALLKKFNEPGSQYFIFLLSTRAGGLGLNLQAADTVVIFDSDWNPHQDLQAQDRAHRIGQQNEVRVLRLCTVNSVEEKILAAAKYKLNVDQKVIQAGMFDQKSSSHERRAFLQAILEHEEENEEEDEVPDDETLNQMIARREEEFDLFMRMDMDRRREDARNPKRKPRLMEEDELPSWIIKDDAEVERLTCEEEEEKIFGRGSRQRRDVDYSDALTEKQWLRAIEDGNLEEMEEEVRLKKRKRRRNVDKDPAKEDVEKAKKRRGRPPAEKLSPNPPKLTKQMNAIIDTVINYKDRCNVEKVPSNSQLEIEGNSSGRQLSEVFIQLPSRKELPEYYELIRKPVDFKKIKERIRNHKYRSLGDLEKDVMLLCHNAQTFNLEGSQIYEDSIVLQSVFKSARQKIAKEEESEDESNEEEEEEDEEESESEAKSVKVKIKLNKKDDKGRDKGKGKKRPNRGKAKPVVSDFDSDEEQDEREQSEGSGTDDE

Turning to `Nc1nnc(-c2ccccc2O)cc1OCCc1ccc(C(=O)NCCCCCCCCCCCC(=O)NCc2ccc(S(=O)(=O)Nc3cccc4c(Cl)c[nH]c34)cc2)cc1` [Compound 22, 12-[[4-(2-[[3-amino-6-(2-hydroxyphenyl)pyridazin-4-yl]oxy]ethyl)phenyl]formamido]-N-([4-[(3-chloro-1H-indol-7-yl)sulfamoyl]phenyl]methyl)dodecanamide], at HiBiT-BRM, the “BRM HiBit Degradation Maximum (%)” value is on record as “C (“C” indicates maximum degradation <50%)” and the DC50 was over 1000 nM. Further, on HiBit-BRG1, the DC50 is over 1000 nM and the Dmax is under 50%.
Take `Cc1ncsc1-c1ccc(CNC(=O)[C@@H]2C[C@@H](O)CN2C(=O)[C@@H](NC(=O)CCN2[C@@H]3CC[C@H]2CN(C(=O)c2ccc(CCOc4cc(-c5ccccc5O)nnc4N)cc2)C3)C(C)(C)C)cc1` [Compound 216, (2S,4R)-1-((2S)-2-(3-(3-(4-(2-((3-amino-6-(2-hydroxyphenyl)pyridazin-4-yl)oxy)ethyl)benzoyl)-3,8-diazabicyclo[3.2.1]octan-8-yl)propanamido)-3,3-dimethylbutanoyl)-4-hydroxy-N-(4-(4-methylthiazol-5-yl)benzyl)pyrrolidine-2-carboxamide]: at HiBiT-BRM, the “BRM HiBit Degradation Maximum (%)” value was “C (“C” indicates maximum degradation <50%)” and the DC50 was over 1000 nM. Further, on HiBit-BRG1, the DC50 was over 1000 nM and the Dmax is under 50%.
Regarding `Cc1ncsc1-c1ccc(CNC(=O)[C@@H]2C[C@@H](O)CN2C(=O)[C@@H](NC(=O)CN2CCC3(CCN(CCC(=O)NCc4ccc(CCOc5cc(-c6ccccc6O)nnc5N)cc4)CC3)CC2)C(C)(C)C)cc1` [Compound 266, (2S,4R)-1-((S)-2-(2-(9-(3-((4-(2-((3-amino-6-(2-hydroxyphenyl)pyridazin-4-yl)oxy)ethyl)benzyl)amino)-3-oxopropyl)-3,9-diazaspiro[5.5]undecan-3-yl)acetamido)-3,3-dimethylbutanoyl)-4-hydroxy-N-(4-(4-methylthiazol-5-yl)benzyl)pyrrolidine-2-carboxamide], on HiBiT-BRM, the “BRM HiBit Degradation Maximum (%)” value was “A (“A” indicates maximum degradation ≥75%)” and the DC50 is over 1000 nM. In addition, on HiBit-BRG1, the DC50 was over 1000 nM and the Dmax was under 50%.
As for `Nc1nnc(-c2ccccc2O)cc1OCCc1ccc(CNC(=O)CCCCNc2cccc3c2C(=O)N(C2CCC(=O)NC2=O)C3)cc1` (stereo not drawn) [Compound 155, N-(4-(2-((3-amino-6-(2-hydroxyphenyl)pyridazin-4-yl)oxy)ethyl)benzyl)-5-((2-(2,6-dioxopiperidin-3-yl)-3-oxoisoindolin-4-yl)amino)pentanamide], on HiBiT-BRM, the “BRM HiBit Degradation Maximum (%)” value is listed as “A (“A” indicates maximum degradation ≥75%)” and the DC50 was over 100 nM. In addition, at HiBit-BRG1, the DC50 is over 1000 nM and the Dmax was under 50%.
As for `Cc1ncsc1-c1ccc([C@H](C)NC(=O)[C@@H]2C[C@@H](O)CN2C(=O)[C@@H](c2cc(OCCN3CC(C(=O)NCc4ccc(CCOc5cc(-c6ccccc6O)nnc5N)cc4)C3)no2)C(C)C)cc1` [Compound 178, (2S,4R)-1-((R)-2-(3-(2-(3-((4-(2-((3-amino-6-(2-hydroxyphenyl)pyridazin-4-yl)oxy)ethyl)benzyl)carbamoyl)azetidin-1-yl)ethoxy)isoxazol-5-yl)-3-methylbutanoyl)-4-hydroxy-N-((S)-1-(4-(4-methylthiazol-5-yl)phenyl)ethyl)pyrrolidine-2-carboxamide], on HiBiT-BRM, the “BRM HiBit Degradation Maximum (%)” value is reported as “A (“A” indicates maximum degradation ≥75%)” and the DC50 was over 100 nM. For the same compound, at HiBit-BRG1, the DC50 was over 100 nM and the Dmax is over 75%.
In the case of `Nc1nnc(-c2ccccc2O)cc1OCCc1ccc(CNC(=O)CCCCOc2ccc3c(c2)CN(C2CCC(=O)NC2=O)C3=O)cc1` (stereo not drawn) [Compound 129, N-(4-(2-((3-amino-6-(2-hydroxyphenyl)pyridazin-4-yl)oxy)ethyl)benzyl)-5-((2-(2,6-dioxopiperidin-3-yl)-1-oxoisoindolin-5-yl)oxy)pentanamide], at HiBiT-BRM, the “BRM HiBit Degradation Maximum (%)” value was “C (“C” indicates maximum degradation <50%)” and the DC50 is over 1000 nM. For the same compound, the DC50 at HiBit-BRG1 was over 1000 nM.
As to `Nc1nnc(-c2ccccc2O)cc1NCCc1ccc(CNCCN2CCN(c3cccc4c3C(=O)N(C3CCC(=O)NC3=O)C4=O)CC2)cc1` (stereo not drawn) [Compound 166, 4-(4-(2-((4-(2-((3-amino-6-(2-hydroxyphenyl)pyridazin-4-yl)amino)ethyl)benzyl)amino)ethyl)piperazin-1-yl)-2-(2,6-dioxopiperidin-3-yl)isoindoline-1,3-dione], on HiBiT-BRM, the “BRM HiBit Degradation Maximum (%)” value is recorded as “C (“C” indicates maximum degradation <50%)” and the DC50 is over 1000 nM. In addition, on HiBit-BRG1, the DC50 is over 1000 nM and the Dmax was under 50%.
As for `Nc1nnc(-c2ccccc2O)cc1N1CCN(CCNC(=O)CCCCOc2cccc3c2C(=O)N(C2CCC(=O)NC2=O)C3=O)CC1` (stereo not drawn) [Compound 89, N-(2-[4-[3-amino-6-(2-hydroxyphenyl)pyridazin-4-yl]piperazin-1-yl]ethyl)-5-[[2-(2,6-dioxopiperidin-3-yl)-1,3-dioxoisoindol-4-yl]oxy]pentanamide], on HiBiT-BRM, the “BRM HiBit Degradation Maximum (%)” value was “C (“C” indicates maximum degradation <50%)” and the DC50 was over 1000 nM. On HiBit-BRG1, the DC50 was over 1000 nM and the Dmax was under 50%.
In the case of `Nc1nnc(-c2ccccc2O)cc1OCCc1ccc(CNC(=O)CCNc2cccc3nnn(C4CCC(=O)NC4=O)c(=O)c23)cc1` (stereo not drawn) [Compound 111, N-(4-(2-((3-amino-6-(2-hydroxyphenyl)pyridazin-4-yl)oxy)ethyl)benzyl)-3-((3-(2,6-dioxopiperidin-3-yl)-4-oxo-3,4-dihydrobenzo[d][1,2,3]triazin-5-yl)amino)propanamide], on HiBiT-BRM, the “BRM HiBit Degradation Maximum (%)” value is listed as “C (“C” indicates maximum degradation <50%)” and the DC50 is over 1000 nM. On HiBit-BRG1, the DC50 is over 1000 nM and the Dmax was under 50%.
`Cc1ncsc1-c1ccc([C@H](C)NC(=O)[C@@H]2C[C@@H](O)CN2C(=O)[C@@H](c2cc(OCCN3CCC(OC4CCN(C(=O)c5ccc(CCOc6cc(-c7ccccc7O)nnc6N)cc5)CC4)CC3)no2)C(C)C)cc1` [Compound 210, (2S,4R)-1-((R)-2-(3-(2-(4-((1-(4-(2-((3-amino-6-(2-hydroxyphenyl)pyridazin-4-yl)oxy)ethyl)benzoyl)piperidin-4-yl)oxy)piperidin-1-yl)ethoxy)isoxazol-5-yl)-3-methylbutanoyl)-4-hydroxy-N-((S)-1-(4-(4-methylthiazol-5-yl)phenyl)ethyl)pyrrolidine-2-carboxamide]: at HiBiT-BRM, the “BRM HiBit Degradation Maximum (%)” value was “A (“A” indicates maximum degradation ≥75%)” and the DC50 is under 10 nM. Moreover, at HiBit-BRG1, the DC50 is over 100 nM and the Dmax was over 50%.
Taken in the same sequence, the figures for `Cc1ncsc1-c1ccc([C@H](C)NC(=O)[C@@H]2C[C@@H](O)CN2C(=O)[C@@H](NC(=O)CCN2C[C@H]3CN(CCC(=O)NCc4ccc(CCOc5cc(-c6ccccc6O)nnc5N)cc4)C[C@H]3C2)C(C)(C)C)cc1` [Compound 259, (2S,4R)-1-((2S)-2-(3-(5-(3-((4-(2-((3-amino-6-(2-hydroxyphenyl)pyridazin-4-yl)oxy)ethyl)benzyl)amino)-3-oxopropyl)hexahydropyrrolo[3,4-c]pyrrol-2(1H)-yl)propanamido)-3,3-dimethylbutanoyl)-4-hydroxy-N-((S)-1-(4-(4-methylthiazol-5-yl)phenyl)ethyl)pyrrolidine-2-carboxamide] were “C (“C” indicates maximum degradation <50%)”, over 1000 nM, over 1000 nM and under 50%.
Taken in the same sequence, the figures for `Nc1nnc(-c2ccccc2O)cc1OCCc1ccc(CNCCN2CCN(c3ccc4c(c3)C(=O)N(C3CCC(=O)NC3=O)C4=O)CC2)cc1` (stereo not drawn) [Compound 3, 5-(4-(2-((4-(2-((3-amino-6-(2-hydroxyphenyl)pyridazin-4-yl)oxy)ethyl)benzyl)amino)ethyl)piperazin-1-yl)-2-(2,6-dioxopiperidin-3-yl)isoindoline-1,3-dione] were “C (“C” indicates maximum degradation <50%)”, over 1000 nM, over 1000 nM and under 50%.
With `Nc1nnc(-c2ccccc2O)cc1OCCc1ccc(C(=O)NCCCCCCCC(=O)NCc2ccc(S(=O)(=O)Nc3cccc4c(Cl)c[nH]c34)cc2)cc1` [Compound 25, 8-[[4-(2-[[3-amino-6-(2-hydroxyphenyl)pyridazin-4-yl]oxy]ethyl)phenyl]formamido]-N-([4-[(3-chloro-1H-indol-7-yl)sulfamoyl]phenyl]methyl)octanamide], on HiBiT-BRM, the “BRM HiBit Degradation Maximum (%)” value was “C (“C” indicates maximum degradation <50%)” and the DC50 is over 1000 nM. Besides, at HiBit-BRG1, the DC50 was over 1000 nM and the Dmax is under 50%.
